In patent US20050182220A1, “Novel functional norbornenes as initiators for radical polymerization, their polymeric derivatives and a process for producing the same” (priority 2004, published 2005):

Assay: Solubility in organic solvents
Format: physicochemical

SMILES: CC(C)(Br)C(=O)NCC1CC2C=CC1C2 (stereo not drawn) [NBTMBr]
- Solubility: completely soluble in (solvents) (at 60° C.): completely in N,N-dimethylacetamide (DMAc)
- Solubility: partially soluble in (solvents) (at 60° C.): partially in toluene, benzene, hexane and N-methyl-2-pyrrolidinone (NMP)
- Solubility: soluble in (solvents) (at room temperature): soluble in acetone, pyridine, ethanol, methanol, methylene chloride, tetrahydrofuran, N,N-dimethylformamide (DMF) and dimethylsulfoxide (DMSO)
